Results on one compound are retold here after PMC4007162 (Journal of molecular endocrinology, 2011).

This assay concerns the target T1, ERα (Homo sapiens, UniProt P03372).
T1 sequence (P03372 1-595): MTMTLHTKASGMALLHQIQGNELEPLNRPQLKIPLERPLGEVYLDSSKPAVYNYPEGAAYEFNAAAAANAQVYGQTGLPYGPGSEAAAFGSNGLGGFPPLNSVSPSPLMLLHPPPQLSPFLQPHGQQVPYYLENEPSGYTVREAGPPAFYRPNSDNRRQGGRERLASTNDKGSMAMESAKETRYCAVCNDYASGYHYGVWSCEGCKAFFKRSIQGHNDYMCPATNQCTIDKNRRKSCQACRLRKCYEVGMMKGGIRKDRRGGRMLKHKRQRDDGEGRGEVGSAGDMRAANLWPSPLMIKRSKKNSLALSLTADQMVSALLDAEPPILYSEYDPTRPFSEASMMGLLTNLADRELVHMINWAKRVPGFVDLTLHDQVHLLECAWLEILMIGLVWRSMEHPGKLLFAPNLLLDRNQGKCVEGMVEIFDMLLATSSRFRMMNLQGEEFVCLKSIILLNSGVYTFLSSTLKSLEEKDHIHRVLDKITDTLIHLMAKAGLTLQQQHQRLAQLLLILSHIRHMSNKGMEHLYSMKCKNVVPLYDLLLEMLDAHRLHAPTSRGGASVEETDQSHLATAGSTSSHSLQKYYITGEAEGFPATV
Description: fluorescence polarization competition with ES2 tracer, recombinant ER. Format: binding.

As for `Oc1ccc(Nc2nc(-c3ccc(Cl)cc3)cs2)cc1` [SKI-II, 4-[4-(4-chloro-phenyl)-thiazol-2-ylamino]-phenol], the IC50 came out at 85.8 nM.

Broadly, the IC50 is the point on the concentration scale where inhibition reaches its midpoint.
